Where a name gives a salt, the structure may show the parent alone.
Target: T1, RORc ligand binding domain (Homo sapiens, UniProt P51449)
T1 sequence (P51449 269-508 limits assumed): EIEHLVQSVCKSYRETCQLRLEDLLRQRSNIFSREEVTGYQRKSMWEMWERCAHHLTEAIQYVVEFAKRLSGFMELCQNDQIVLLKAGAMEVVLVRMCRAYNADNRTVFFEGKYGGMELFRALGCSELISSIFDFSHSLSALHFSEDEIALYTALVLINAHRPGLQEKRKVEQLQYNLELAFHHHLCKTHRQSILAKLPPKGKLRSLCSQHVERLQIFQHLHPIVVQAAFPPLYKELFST
Assay: In vitro RORc ligand binding assay (25-[3H]hydroxycholesterol displacement)
Procedure: This assay was used to determine a compound's potency in inhibiting activity of RORc by determining, Kiapp, IC50, or percent inhibition values.
On day of the assay, 100 uL of 0.05% CHAPS (in deionized H2O) was added to all wells of the GFB Unifilter plate and allowed soak for 1 h. A wash buffer of 50 mM HEPES (pH 7.4), 150 mM NaCl, and 5 mM MgCl2 was prepared to wash the filter plate. To prepare an assay buffer, BSA was added to the wash buffer to reach 0.01% and DTT was added to reach 1 mM.
The 20× compound stocks were diluted in DMSO with Assay Buffer 4-fold to reach 5× the final test concentration in 25% DMSO (10 uL compound+30 uL Assay Buffer). Solutions were mixed by aspiration several times with a pipette set on 50 uL volume.
For two point screening, 10 mM stock compound solutions were diluted in DMSO to obtain 200 uM (20× the high test concentration) and then diluted 10-fold further to reach 20 uM (20× the low test concentration). The 20× stocks were diluted 4-fold with Assay Buffer (10 uL compound+30 uL Assay Buffer) to reach 5× the test concentrations (50 uM and 5 uM) and 10 uL were added to two assay plates for the duplicate wells. With each concentration tested on 2 plates, each set of 80 compounds used 4 assay plates (1 uM and 10 uM, with n=2).
Nonspecific Binding (NSB) Samples, Total Binding (TB) Samples and No Receptor (No R) Samples
For 25-hydroxycholesterol in 25% DMSO/75% Assay Buffer; 10 uL per well was used for NSB samples. Wells for Total Binding and No Receptor sample determination contained 10 uL of 25% DMSO/75% Assay Buffer per well.
Radioligand 25-[^3H]Hydroxycholesterol) Preparation
Add 20 uL to all wells to reach 6 nM final in the assay.
Stock receptor solution was diluted in assay buffer to obtain 1.5 ug/mL in Assay Buffer. 20 uL was added to all wells. For No R samples, 20 uL Assay Buffer was substituted for receptor solution.
Sample addition to Plates and Incubation
Assay plates were 96-well polypropylene V-bottom plates. […] 10 uL of 25% DMSO/75% Assay Buffer was added to Total Binding or No Receptor wells. 10 uL of 5 uM 25-hydroxycholesterol in 25% DMSO/75% Assay Buffer was added to NSB wells. […] 20 uL of 1.5 ug/mL RORc receptor was added to wells (or 40 uL Assay Buffer to No R wells). Following addition to the wells, the plates were incubated 3 h at 25° C.
Using a Packard Filtermate Harvester, the filter plate were washed 4 times following transfer of the incubated samples. Plates were dry-filtered completely (2 h at 50° C. or overnight at room temperature). 50 uL Microscint 0 was added to all wells and read on Topcount protocol Inverted.
Final concentrations were as follows: 50 mM HEPES buffer (pH 7.4); 150 mM NaCl; 1 mM DTT; 5 mM MgCl2; 0.01% BSA; 5% DMSO; 0.6 ug/mL RORc receptor; 6 nM 25-[^3H]hydroxycholesterol. For NSB wells, 1 uM 25-hydroxycholesterol was also present.

Structure (SMILES)	IC50 [nM]
C[C@H]1CC[C@H](c2ccccc2)S(=O)(=O)N1Cc1cc(F)c([C@]2(Cn3cn[nH]c3=O)C[C@](C)(O)C2)cc1F (racemic) [Example 178, 4-[[1-[2,5-difluoro-4-[[rac-(3S,6R)-3-methyl-1,1-dioxo-6-phenyl-thiazinan-2-yl]methyl]phenyl]-3-hydroxy-3-methyl-cyclobutyl]methyl]-1H-l,2,4-triazol-5-one]	6.1
Cc1nc(CNC2(c3ccc(CN4[C@@H](C)CC[C@H](c5ccccc5)S4(=O)=O)c(F)c3)CCOCC2)co1 [Example 78, 4-[3-fluoro-4-[[(3S,6R)-3-methyl-1,1-dioxo-6-phenyl-thiazinan-2-yl]methyl]phenyl]-N-[(2-methyloxazol-4-yl)methyl]tetrahydropyran-4-amine; hydrochloride]	30.2
C[C@H]1CC[C@H](c2ccccc2)S(=O)(=O)N1Cc1cc(F)c([C@]2(c3n[nH]c(=O)o3)C[C@](C)(N)C2)cc1F (racemic) [Example 173, 5-[3-amino-1-[2,5-difluoro-4-[[rac-(3S,6R)-3-methyl-1,1-dioxo-6-phenyl-thiazinan-2-yl]methyl]phenyl]-3-methyl-cyclobutyl]-3H-1,3,4-oxadiazol-2-one; hydrochloride]	180
C[C@H]1CC[C@H](c2ccccc2)S(=O)(=O)N1Cc1cc(F)c(C2(c3nc(CO)co3)CCOCC2)cc1F [Example 74, [2-[4-[2,5-difluoro-4-[[(3S,6R)-3-methyl-1,1-dioxo-6-phenyl-thiazinan-2-yl]methyl]phenyl]tetrahydropyran-4-yl]oxazol-4-yl]methanol]	12.8
C[C@H]1CC[C@H](c2ccccc2)S(=O)(=O)N1Cc1cc(F)c([C@]2(c3n[nH]c(=O)o3)C[C@H](O)C2)cc1F [Example 123, trans-5-[1-[2,5-difluoro-4-[[(3S,6R)-3-methyl-1,1-dioxo-6-phenyl-thiazinan-2-yl]methyl]phenyl]-3-hydroxy-cyclobutyl]-3H-1,3,4-oxadiazol-2-one]	1.8
C[C@H]1CC[C@H](c2ccccc2)S(=O)(=O)N1Cc1ccc(C2(C(=O)NC3COC3)CCOCC2)cc1F [Example 1]	110
Cc1cc(CNC2(c3cc(F)c(CN4[C@@H](C)CC[C@H](c5ccccc5)S4(=O)=O)cc3F)CCOCC2)no1 [Example 86, 4-[2,5-difluoro-4-[[(3S,6R)-3-methyl-1,1-dioxo-6-phenyl-thiazinan-2-yl]methyl]phenyl]-N-[(5-methylisoxazol-3-yl)methyl]tetrahydropyran-4-amine]	5
C[C@H]1CC[C@H](c2ccccc2)S(=O)(=O)N1Cc1cc(F)c(C2(NCc3ccnn3C)COC2)cc1F [Example 137, 3-[2,5-difluoro-4-[[(3S,6R)-3-methyl-1,1-dioxo-6-phenyl-thiazinan-2-yl]methyl]phenyl]-N-[(2-methylpyrazol-3-yl)methyl]oxetan-3-amine]	89.4
Cc1cncc(C(=O)NC2(c3cc(F)c(CN4[C@@H](C)CC[C@H](c5ccccc5)S4(=O)=O)cc3F)CCOCC2)n1 [Example 108, N-[4-[2,5-difluoro-4-[[(3S,6R)-3-methyl-1,1-dioxo-6-phenyl-thiazinan-2-yl]methyl]phenyl]tetrahydropyran-4-yl]-6-methyl-pyrazine-2-carboxamide]	19.2

Reference: patent US10259808B2 (Genentech, Inc., priority 2015, dated 2019)
